Test results from patent US9512066B2, “Enhancers of protein degradation” (MAX-DELBRUCK-CENTRUM FUR MOLEKULARE MEDIZIN, priority 2009, dated 2016).
In brackets after ≈: the same amount, converted by molar mass.

Legend:
[1] = molecular target: BSA (Bos taurus, UniProt P02769); test: Hydrazone hydrolysis in ammonium acetate solution with addition of BSA (RP-HPLC); assay type: physicochemical; conditions: bovine, BSA (5 µM) in ammonium acetate solution, 20 μM hydrazone, 10 mM ammonium acetate, read-out: free soluble hydrazone after addition of BSA (converted)
Chain of BSA (P02769 25-607): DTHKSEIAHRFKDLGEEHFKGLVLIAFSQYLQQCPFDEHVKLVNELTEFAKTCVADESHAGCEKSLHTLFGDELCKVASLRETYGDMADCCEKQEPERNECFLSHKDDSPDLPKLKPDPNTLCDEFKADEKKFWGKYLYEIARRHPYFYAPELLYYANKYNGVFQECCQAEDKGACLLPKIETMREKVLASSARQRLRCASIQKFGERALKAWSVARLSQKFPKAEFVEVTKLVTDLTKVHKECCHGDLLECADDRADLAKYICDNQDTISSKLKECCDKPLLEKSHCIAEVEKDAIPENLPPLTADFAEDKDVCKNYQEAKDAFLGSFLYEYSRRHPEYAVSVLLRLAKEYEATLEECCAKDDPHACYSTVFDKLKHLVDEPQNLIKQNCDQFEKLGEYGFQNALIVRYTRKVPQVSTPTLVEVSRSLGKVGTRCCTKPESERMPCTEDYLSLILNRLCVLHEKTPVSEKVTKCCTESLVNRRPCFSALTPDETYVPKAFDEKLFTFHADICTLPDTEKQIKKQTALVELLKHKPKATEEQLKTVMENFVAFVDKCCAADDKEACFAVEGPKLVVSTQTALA
Protocol: FIG. 4 illustrates the difference in the hydrazone hydrolysis with and without the addition of BSA of product example 1. A freshly prepared 10 mM methanol solution of product example 1 was diluted with an ammonium acetate (10 mM) BSA (5 μM) solution to a final concentration of 20 μM. The free soluble hydrazone was analyzed via RP-HPLC over a sample period of 24 h. The injection volume was 20 μL, the sample was stored at room temperature. The hydrazone peak was exploited for the determination of the hydrazone concentration. After the addition of BSA approximately […] of the available hydrazone was directly associated to the protein. Afterwards, the free hydrazone concentration was almost constant, between 96% and 91%, over the sample period.

[2] = tested on: HTT-Q53 protein; test: GST-Htt-Q53 filter assay with conformational CAG antibody; assay type: biochemical; conditions: samples at 0, 4, 5 and 6 h, 30° C.
Protocol: GST-Htt-Q53-protein stock solution was ultra-centrifugated (40 min, 55.000 rpm [TLA-55 rotor], 4° C.); the supernatant was diluted with H2O to a final concentration of 2 μM. DMSO as a control, or drugs at various concentrations were added to the supernatant of GST-Htt-Q53 protein which was preincubated with PreScission Protease (GE Healthcare, #27-0843-01) in Tris-buffer (A:B=1:1; A:50 mM Tris, 150 mM NaCl, pH=6.8; B:1 mM EDTA, pH=8.0+10 mM DTT) and incubated at 30° C. (300 rpm). Samples were taken at 0, 4, 5 and 6 h. The samples were diluted with SDS-buffer (4% SDS, 100 mM DTT) and heated at 98° C. for 5 min. Samples were filtered through a cellulose-acetate membrane which was equilibrated with SDS solution (0.1%). The membrane was washed twice (SDS, 0.1%), blocked with skim milk (3% in PBS) for 30 min and developed with CAG antibody over night at 4° C. and with peroxidase labeled anti rabbit-antibody for 1 h at room temperature. The membrane was washed (2×TBS-0.05% Tween-20, 2×TBS) and luminescence was recorded with Chem Glow.

[3] = Insolubility observed in the HepG2 viability assay; assay type: physicochemical; conditions: RPMI culture medium of the HepG2 viability assay, 37 °C, kinetic from dmso stock, RPMI medium (1% L-Glu, 10% FCS), read-out: concentration from/at which insoluble
Protocol: Cell viability was assayed on HepG2 cells. HepG2 cells were cultured in 96-well black culture plates with transparent bottom in RPMI medium (1% L-Glu, 10% FCS). 3 hours after plating, different drug concentrations (0.1 μM-100 μM) or DMSO as control were added. Chlorpromazine hydrochloride (Sigma, # C0982) and cycloheximide (Sigma, # C1988) were used as control substances. Each concentration was run in triplicates. After 48 hours of incubation, Alamar Blue reagent (BIOSOURCE, # DAL1100) was added and plates were incubated for 4 hours at […]. Absorbance was measured in the Tecan-plate reader (Tecan, infinite M200) at 570 nm and 600 nm. Product example 1 was insoluble from a concentration of 50 μM, product example 33 from 30 μM and product example 23 at 100 μM.

[4] = tested on: tubulin; test: Tubulin polymerization assay (Cytoskeleton, Inc.); assay type: biochemical; conditions: various concentrations
Protocol: The tubulin polymerization assay (Cytoskeleton, Inc., Denver, Colo., USA, #BK011) was performed in accordance to the instruction manual.

fraction unbound at 20 µM [1] | Compound | change in conformation of the HTT-Q53 protein detected by the conformational CAG antibody [2] | solubility [3] [µM] | effect on tubulin polymerization [4]
~0.83 | Oc1ccc(C=NNc2c(Cl)cc(C(F)(F)F)cc2Cl)c(O)c1 [Example 1, 4-((2-(2,6-Dichloro-4-(trifluoromethyl)phenyl)hydrazono)methyl)benzene-1,3-diol] | time-dependent change in conformation | ≥ 50 | no effect
– | Oc1ccc(C=NNc2c(F)c(F)c(F)c(F)c2F)c(O)c1 [Example 23, 4-((2-(Perfluorophenyl)hydrazono)methyl)benzene-1,3-diol] | time-dependent change in conformation | 100 (≈ 31.8 µg/mL) | –
– | O=[N+]([O-])c1ccc(NN=Cc2ccc(O)cc2O)cc1 [Example 33, 4-((2-(4-Nitrophenyl)hydrazono)methyl)benzene-1,3-diol] | – | ≥ 30 | –
